Tests used:
[1] = target: T1, WAVE2 (Homo sapiens, UniProt Q9Y6W5); experiment: MST binding, YFP-WAVE2 in HEK 293T cell lysate
T1 construct: expressed in transfected cells; host or cells: HEK 293T, transient transfection; unpurified cell lysate
Procedure: Diluted cell lysates of YFP-WASp/N-WASp/WAVE2-expressing HEK 293T cells were incubated with serially-diluted (100 μM-3 nM) SMCs. The mixed lysates and SMCs were then loaded into standard-treated Monolith™ capillaries and the fluorescence of the samples was measured by the Monolith NT.115 instrument at 60% MST power. Binding curves of WASp with SMC #6 (FIG. 3A), SMC #30 (FIG. 3B), SMC #33 (FIG. 3C), SMC #34 (FIG. 3D) and Y-27632 (FIG. 3E) or of N-WASp (FIG. 3F) or WAVE2 (FIG. 3G) with SMC #34 were generated by the NanoTemper Analysis 2.231 software. Normalized fluorescence (hot fluorescence/initial fluorescence) is plotted as a function of SMC concentration. […]
YFP-tagged WASp was obtained from cell lysates of Human Embryonic Kidney (HEK) 293T, transiently transfected with YFP-WASp/WAVE2/N-WASp by DNA-calcium phosphate co-precipitation as previously described (Reicher et al, 2012). […] After loading into the instrument (Monolith NT.115, NanoTemper), the samples were measured by standard protocols at 60% MST power. […] KD values were determined using the NanoTemper analysis software (NT Analysis 1.5.37 or 2.2.31).
Following this in silico screening, the inventors identified eight SMCs (#6, #23, #24, #25, #30, #32, #33, #34, see Table 1). […] The SMCs that specifically bind the degradation pocket of WASp were further evaluated by the inventors.

[2] = tested on: YFP-WASp R86C or Y107C; experiment: WASp expression in WASp knockout Jurkat lines expressing only YFP-WASp R86C or Y107C (western blot); type: cell-based, human; conditions: WAS−/−/WASp R86C or Y107C, vs control-treated cells
Procedure: The cells were then co-stimulated with anti-CD3 and anti-CD28 and analyzed by western blot as described in FIG. 14B. […] Relative protein expression was determined by densitometric analysis and is presented below the corresponding lanes.
CRISPR/CAS9 knockdown of endogenous WASp in T-cells was conducted according to published protocol (Ran F A et al, 2013). The vector pSpCas9 (BB)-2A-GFP (PX458) was purchased from Addgene, plasmid #48138. RNA guides were designed to target an intron/exon junction in the WAS gene, in order to eliminate gene silencing of exogenous YFP-WASp. RNA guide sequences aimed for WASp locus were constructed using the online CRISPR design tool algorithm (Zhang Lab) and NCBI gene. The guides which received the highest score were selected to be subcloned into the pSpCas9 (BB)-2A-GFP (PX458) vector.
The sequence present in WASp exons is bold. The sequence that is complementary to WASp intron (chromosome X, GRCh38.p7 nucleotides 1883-1890) is underlined. Knockout of endogenous WASp was conducted in Jurkat cells alone or in Jurkat cells stably expressing YFP-WASp containing the following mutations, R86C (as denoted by SEQ ID NO. 13 and encoded by SEQ ID NO. 14) or Y107C (as denoted by SEQ ID NO. 15 and encoded by SEQ ID NO. 16). […]
Cells exclusively expressing the YFP-WASp mutants were incubated with SMC #34 or solvent, stimulated and analyzed by western blot.

T1 sequence (Q9Y6W5 whole entry, species assumed): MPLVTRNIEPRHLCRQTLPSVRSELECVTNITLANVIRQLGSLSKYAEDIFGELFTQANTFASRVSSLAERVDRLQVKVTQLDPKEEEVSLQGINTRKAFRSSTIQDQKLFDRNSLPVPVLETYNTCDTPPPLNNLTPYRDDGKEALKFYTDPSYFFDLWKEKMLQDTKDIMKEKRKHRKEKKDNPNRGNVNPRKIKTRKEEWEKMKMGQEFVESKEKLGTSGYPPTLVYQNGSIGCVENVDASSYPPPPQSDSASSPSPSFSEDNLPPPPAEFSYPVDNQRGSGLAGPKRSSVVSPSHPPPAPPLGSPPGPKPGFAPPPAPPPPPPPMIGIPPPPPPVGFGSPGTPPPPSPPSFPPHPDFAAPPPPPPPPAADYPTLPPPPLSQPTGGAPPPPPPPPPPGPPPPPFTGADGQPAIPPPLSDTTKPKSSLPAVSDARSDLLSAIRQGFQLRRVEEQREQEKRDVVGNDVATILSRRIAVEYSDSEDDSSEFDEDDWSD

CC1CCCC(C)N1C(=O)CSc1nnc(COc2cccc3cccnc23)o1 (centres unmarked) [SMC #34, 1-(2,6-dimethylpiperidin-1-yl)-2-[[5-(quinolin-8-yloxymethyl)-1,3,4-oxadiazol-2-yl]sulfanyl]ethanone]
binding to WAVE2 [1]: no binding
WASp expression in cells exclusively expressing the YFP-WASp mutants [2]: increased WASp expression

Source: patent publication US12150940B2, “WASp-protecting small molecules, compositions, methods and uses thereof in the treatment of innate and acquired immune-related disorders or conditions” (BAR ILAN UNIVERSITY, priority 2016, dated 2024)
